11 compounds from ChEMBL document CHEMBL1201862, “PubChem BioAssay data set” (2004) can be followed below.

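Protocol summary: plate cells (96-well), add compound at 5 concentrations, incubate 48 h, interpolate endpoints linearly. GI50 = concentration required for 50% inhibition of growth.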 Active and inactive are the calls of the source. Cut-off read from the data, not from the text of the source: active = GI50 up to about 1.1 µM and inactive = higher. Peptide text beside a SMILES is read from it. * marks the point of attachment. Boc = CC(C)(C)OC(=O)*; OBn = c1ccc(CO*)cc1

Among the test systems are A549; Hs-578T; MDA-MB-231; MDA-MB-435; ACHN; OVCAR-4; HT-29; NCI-H460; M14; UO-31; SF-539; HL-60; HCT-116; K562; SW-620; MOLT-4; NCI-H23; SK-MEL-5; LOX IMVI; HCC 2998.
Common to all, as to experiment: NCI-60 cell line screen, 48 h

As to `Cc1csc2c(=O)n(C3OC(CO)C(O)C3O)c(=O)[nH]c12` (centres undefined), the GI50 in the test with A549, in the test with Hs-578T, in the test on MDA-MB-231, with MDA-MB-435, in the test with ACHN and in the test on OVCAR-4 was > 100 µM (inactive) in each case. In addition, the GI50 with HT-29, in the test on NCI-H460, in the test with M14, in the test on UO-31, with SF-539 and in the test with HL-60 was > 100 µM (inactive) throughout. For the same compound, the GI50 with HCT-116, in the test with K562, in the test with SW-620, with MOLT-4, in the test on NCI-H23 and in the test with SK-MEL-5 was > 100 µM (inactive) throughout. The GI50 with LOX IMVI is > 100 µM (inactive).

As to `COc1cc2c(cc1OC)C13CC[N+]4(C)CC5=CCOC6CC(=O)N2C1C6C5CC34[O-]` (centres undefined), the GI50 in the test on A549, with Hs-578T, in the test on MDA-MB-231, in the test with MDA-MB-435, in the test on ACHN and in the test on OVCAR-4 was > 100 µM (inactive) throughout. For the same compound, the GI50 with NCI-H460, in the test on M14, in the test on UO-31, with SF-539, with HL-60 and in the test with HCT-116 was > 100 µM (inactive) in each case. Besides, the GI50 with K562, with SW-620, with MOLT-4, with NCI-H23, in the test with SK-MEL-5 and in the test with LOX IMVI was > 100 µM (inactive) in each case.

Consider `Cc1sc2c(c1C)/C(=N\O)c1cccn1-2`, for which the GI50 with A549 is 44.5 µM (inactive); in the test with Hs-578T, 16.9 µM (inactive); in the test with MDA-MB-231, 52.8 µM (inactive); in the test on MDA-MB-435 it was 54 µM (inactive); with ACHN, 37.2 µM (inactive); in the test with OVCAR-4, 44.9 µM (inactive). In addition, the GI50 in the test with HT-29 is 30.2 µM (inactive); in the test with NCI-H460, 35.1 µM (inactive); in the test on M14, 64 µM (inactive); in the test with UO-31, 31.6 µM (inactive); in the test on HCT-116, 37.6 µM (inactive); with SW-620, 58.6 µM (inactive). Further, the GI50 in the test with MOLT-4 is 17.3 µM (inactive); with HCC 2998, 37 µM (inactive); in the test with SK-MEL-5, 46.1 µM (inactive); with LOX IMVI, 55.7 µM (inactive).

Regarding `C=CCC(CC=O)(C(=O)OCC)C(=O)OCC`, the GI50 with A549, in the test with Hs-578T, in the test with MDA-MB-231, in the test with MDA-MB-435, in the test with ACHN and in the test with OVCAR-4 was > 100 µM (inactive) throughout. The GI50 in the test on HT-29 was > 100 µM (inactive); in the test on NCI-H460, > 100 µM (inactive); with M14, > 100 µM (inactive); with UO-31, 76.2 µM (inactive); in the test on SF-539, > 100 µM (inactive); in the test on HL-60, 86.1 µM (inactive). For the same compound, the GI50 in the test with HCT-116, in the test with K562, in the test with SW-620, with MOLT-4, with NCI-H23 and in the test with SK-MEL-5 was > 100 µM (inactive) throughout. Besides, the GI50 in the test with LOX IMVI was > 100 µM (inactive).

With `O=C(CCn1ccnc1[N+](=O)[O-])NCCCn1ccnc1[N+](=O)[O-]`, the GI50 in the test on A549, in the test on Hs-578T, in the test with MDA-MB-231, with MDA-MB-435, in the test on ACHN and with OVCAR-4 was > 100 µM (inactive) throughout. The GI50 with HT-29, in the test on NCI-H460, in the test with M14, with UO-31, with SF-539 and with HL-60 was > 100 µM (inactive) in each case. For the same compound, the GI50 in the test on HCT-116, in the test with K562, with SW-620, with MOLT-4, in the test with NCI-H23 and in the test with SK-MEL-5 was > 100 µM (inactive) in each case. In addition, in the test with LOX IMVI, the GI50 was > 100 µM (inactive).

As for `Cc1ccc(S(=O)(=O)NC(=O)C2C(=O)CC3(CCCCC3)CC2=O)cc1`, the GI50 was 33.3 µM (inactive) in the test on A549; 41.9 µM (inactive) in the test with Hs-578T; 36.1 µM (inactive) in the test with MDA-MB-231; 32.1 µM (inactive) in the test on MDA-MB-435; 22.9 µM (inactive) in the test with ACHN; 32.4 µM (inactive) with OVCAR-4. Further, the GI50 was 32.7 µM (inactive) with HT-29; 25.2 µM (inactive) in the test with NCI-H460; 34.5 µM (inactive) with M14; 22.4 µM (inactive) in the test on UO-31; 30.7 µM (inactive) in the test with SF-539; 29.5 µM (inactive) in the test on HL-60. Also, the GI50 is 25.9 µM (inactive) in the test on HCT-116; 38.1 µM (inactive) with K562; 27.6 µM (inactive) with SW-620; 42.4 µM (inactive) with MOLT-4; 46 µM (inactive) in the test with NCI-H23; 25.4 µM (inactive) in the test with SK-MEL-5. Moreover, in the test on LOX IMVI, the GI50 is 55.2 µM (inactive).

Turning to `CC(NC(=O)Cc1ccccc1)NC(=O)C(C)C(=O)Nc1ccccc1` (centres undefined), the GI50 is > 100 µM (inactive) with A549; 23.7 µM (inactive) in the test with Hs-578T; 65.6 µM (inactive) in the test on MDA-MB-231; > 100 µM (inactive) with MDA-MB-435; 41.6 µM (inactive) with ACHN; > 100 µM (inactive) in the test on OVCAR-4. Moreover, the GI50 with HT-29 was > 100 µM (inactive); in the test with NCI-H460 it was > 100 µM (inactive); in the test on M14 it was > 100 µM (inactive); in the test on UO-31, 43.7 µM (inactive); in the test on SF-539, > 100 µM (inactive); in the test on HL-60 it was > 10 µM (inactive). Further, the GI50 with HCT-116, with K562, in the test on SW-620, in the test on MOLT-4, with NCI-H23 and in the test on SK-MEL-5 was > 100 µM (inactive) in each case.

Consider `Cc1cccc(N(C(=O)Nc2ccc(Cl)c(Cl)c2)C2=NCC(C)S2)c1` (centres undefined), for which the GI50 in the test on A549 was 38.9 µM (inactive); with Hs-578T, 32.5 µM (inactive); with MDA-MB-231, 29.8 µM (inactive); in the test on ACHN, 50.1 µM (inactive); with OVCAR-4, 41.6 µM (inactive); in the test with HT-29, 11.4 µM (inactive). The GI50 in the test with NCI-H460 was 41.9 µM (inactive); in the test on M14 it was 0.55 µM (active); with UO-31, > 100 µM (inactive); in the test with SF-539, 22.7 µM (inactive); in the test with HL-60 it was 41.6 µM (inactive); in the test on HCT-116, 43.1 µM (inactive). In addition, the GI50 with K562 is 24.8 µM (inactive); in the test on SW-620, 32.1 µM (inactive); with MOLT-4, 16.2 µM (inactive); in the test on NCI-H23 it was 37.3 µM (inactive); in the test with HCC 2998, 36.8 µM (inactive); in the test on SK-MEL-5, 17.5 µM (inactive). The GI50 with LOX IMVI is 18.3 µM (inactive).

Take `O=c1[nH]nc(Cc2ccc(Cl)cc2)n1/N=C\c1ccc(/C=N/n2c(Cc3ccc(Cl)cc3)n[nH]c2=O)cc1`: the GI50 in the test with A549 was > 100 µM (inactive); in the test with Hs-578T, 35.7 µM (inactive); with MDA-MB-231, 17.2 µM (inactive); in the test with MDA-MB-435 it was > 100 µM (inactive); in the test with ACHN it was 29.9 µM (inactive); in the test on OVCAR-4 it was 76.4 µM (inactive). Moreover, the GI50 in the test with HT-29, in the test with NCI-H460, in the test with M14, in the test on UO-31, with HL-60 and in the test on HCT-116 was > 100 µM (inactive) in each case. In addition, the GI50 in the test with K562, in the test on SW-620, in the test with MOLT-4, in the test on NCI-H23, with SK-MEL-5 and with LOX IMVI was > 100 µM (inactive) each time.

`C=C(C1=CC(=O)C(C)(C)O1)[C@@H]1CC=C([C@@H]2CC[C@H]3[C@@]2(C)CC[C@H]2C(C)(C)C(=O)[C@H](OC(=O)CC(C)(O)CC(=O)O)C[C@]32C)[C@H](O)O1` (some centres undefined): the GI50 in the test with A549 is 17.6 µM (inactive); in the test on Hs-578T, 23.9 µM (inactive); in the test with MDA-MB-231, 17.4 µM (inactive); with MDA-MB-435, 15.1 µM (inactive); in the test with ACHN, 14 µM (inactive); in the test on HT-29, 16.8 µM (inactive). Besides, the GI50 with NCI-H460 was 15.9 µM (inactive); in the test with M14 it was 13.5 µM (inactive); with UO-31, 13.6 µM (inactive); in the test with SF-539, 13 µM (inactive); in the test with HL-60, 17.7 µM (inactive); with HCT-116 it was 12.9 µM (inactive). In addition, the GI50 in the test on K562 is 25.7 µM (inactive); in the test on SW-620, 10.7 µM (inactive); with MOLT-4 it was 4.14 µM (inactive); with NCI-H23 it was 13.6 µM (inactive); in the test on SK-MEL-5, 12.5 µM (inactive); with LOX IMVI, 13.1 µM (inactive).

Consider `CC(C)CC(NC(=O)OC(C)(C)C)C(=O)NC(CC(=O)OCc1ccccc1)C(N)=O` (stereo not drawn) (Boc-Leu-Asp(OBn)-NH2; configuration not given here), for which the GI50 is > 100 µM (inactive) in the test on A549; 58.9 µM (inactive) in the test on Hs-578T; > 100 µM (inactive) with MDA-MB-231; > 100 µM (inactive) in the test on MDA-MB-435; > 100 µM (inactive) in the test on ACHN; > 100 µM (inactive) in the test with OVCAR-4. Besides, the GI50 in the test with HT-29, with M14, with UO-31, in the test with SF-539, in the test with HCT-116 and in the test with K562 was > 100 µM (inactive) each time. In addition, the GI50 in the test on SW-620, with NCI-H23, in the test with SK-MEL-5 and in the test on LOX IMVI was > 100 µM (inactive) throughout.
